The values that follow come from patent publication US6653321B1, “Naphthylsulfonic acids and related compounds as glucose uptake agonists” (Telik, Inc., priority 1999, dated 2003).

Assay [1] has as its target T1, β-kinase domain of the human insulin receptor (CKD) (Homo sapiens, UniProt P06213).
T1 construct: The complete β-kinase domain of the human insulin receptor (CKD); made in house
The assay can be described thus: 32P-Cytoplasmic Kinase Domain (CKD) autophosphorylation assay. It is filed as biochemical. The conditions noted are these: 32P incorporated into CKD band, percentage of the vehicle (DMSO) level; 10 minutes at room temperature; compound concentration not given. The procedure:
The complete β-kinase domain of the human insulin receptor (CKD) was expressed in, and purified from, baculovirus. CKD (4.0 μg/mL), in a solution of 50 mM Tris.HCl, 2 mM MnCl2, 10 mM MgCl2 (50 μl final volume), was combined with […] ATP, and 5 μCi ^32P-ATP (3000 Ci/mmol.). A test compound, or the vehicle (DMSO), was added to a final DMSO concentration of 1%. The mixture was incubated for 10 minutes at room temperature. The reaction was terminated by the addition of 10 μl of 200 mM EDTA. A 30 μl volume was removed, mixed with 5 μl of 6×Laemmeli sodium dodecyl sulfate (SDS) treatment buffer, and heated to 94° C. for 5 minutes. A 20 μl aliquot was then run on an SDS-PAGE gel. The radioactivity incorporated into the CKD band is quantified by phosphorimaging of the gel, or scintillation counting of the excised bands.
The potency of a compound for increasing phosphorylation is expressed as a percentage of the vehicle level.

In a further assay the test system is 3T3 L1 fibroblasts. The assay can be described thus: Glucose transport activity (14C-2-deoxy-D-glucose uptake). It is filed as cell-based. The conditions noted are these: Mus musculus; differentiated 3T3 L1 cells, insulin 5.6 nM; concentration giving increase in glucose transport generally 150% of the vehicle control. The procedure: 3T3 L1 fibroblasts (ATCC) were grown in Dulbecco's modified Eagle's medium (DMEM) with 10% fetal bovine serum (FBS, medium). The cells were plated at a density of 3×10^4 cells/well in 24-well plates. Two days after confluence was reached, the cells were treated for 3 days with 0.5 mM isobutylmethylxanthine (IBMX), 1 μM dexamethasone, supplemented with 1.7 μM insulin. The cells were then transferred to medium with 1.7 μM insulin for 2 more days. The cells were maintained in medium for an additional 4 days. Finally the cells were serum starved overnight in 0.1% bovine serum albumin (BSA) in DMEM.
The following day, the culture medium was replaced with 150 mM NaCl, 1.7 mM KCl, 0.9 mM CaCl2, 1.47 mM K2HPO4 (pH 7.4) to which was added either the experimental compounds, or their vehicle (DMSO). Insulin or its vehicle (0.01% BSA) was diluted in the assay buffer (containing test compound or vehicle, respectively) to a final concentration of 5.6 nM. After incubation for 30 min at 37° C. 5 μCi/mL ^14C-2-[…]-D-glucose was added, and the incubation was continued for additional 30 min at 37° C. The cells were then washed 3 times with ice-cold PBS/20 mM glucose and […] in 250 μl of lysis buffer (50 mM HEPES pH 7.6, 1% Triton X-100) for 30 min at room temperature. Radioactivity in the lysate was quantified by scintillation counting.
Once ^14C-2-deoxy-D-glucose is transported into the cell it is not released. Glucose transport is, therefore, proportional to the amount of radioactivity in the lysate. The concentration of compound necessary to produce an increase in glucose transport greater than the sum of the standard deviation of the vehicle control plus the largest standard deviation of a test sample (generally 150% of the vehicle control) was recorded as the EC (effective concentration).

T1 sequence (P06213 980-1382 limits assumed): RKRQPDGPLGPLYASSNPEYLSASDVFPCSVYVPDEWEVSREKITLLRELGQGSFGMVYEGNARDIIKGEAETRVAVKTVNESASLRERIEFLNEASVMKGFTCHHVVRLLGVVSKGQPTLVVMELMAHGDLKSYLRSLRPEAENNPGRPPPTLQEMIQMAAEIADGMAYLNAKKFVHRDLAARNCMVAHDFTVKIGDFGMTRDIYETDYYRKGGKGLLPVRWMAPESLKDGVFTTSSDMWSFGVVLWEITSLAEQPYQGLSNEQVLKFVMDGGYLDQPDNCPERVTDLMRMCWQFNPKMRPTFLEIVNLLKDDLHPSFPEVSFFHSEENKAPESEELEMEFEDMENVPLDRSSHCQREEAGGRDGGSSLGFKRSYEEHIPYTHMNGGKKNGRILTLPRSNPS

Consider `COc1ccc(C(=O)Nc2cc(C(=O)Nc3cccc4cc(S(=O)(=O)O)ccc34)cc(C(=O)Nc3cccc4cc(S(=O)(=O)O)ccc34)c2)cc1` [Compound 9, 5-({3-[(4-methoxyphenyl)carbonylamino]-5-[N-(6-sulfonaphthyl)carbamoyl]phenyl}carbonylamino)naphthalene-2-sulfonic acid], for which, in assay [1], the “Activity (% Control)” value is given as 125.3 % Control. Also, in the assay on 3T3 L1 fibroblasts, a half-maximal response (EC50) required 10 µM.
In the same order, the values of `O=C(Nc1cccc2cc(S(=O)(=O)O)ccc12)c1cc(NC(=O)c2cnc3ccccc3n2)cc(C(=O)Nc2cccc3cc(S(=O)(=O)O)ccc23)c1` [Compound 39] are 96.9 % Control and 100 µM.
Taken in the same sequence, the figures for `O=C(Nc1cccc2cc(S(=O)(=O)O)ccc12)c1cc(NC(=O)c2ccccc2C(=O)O)cc(C(=O)Nc2cccc3cc(S(=O)(=O)O)ccc23)c1` [Compound 17, 2-(N-{3,5-bis[N-(6-sulfonaphthyl)carbamoyl]phenyl}carbamoyl)benzoic acid] were 92.7 % Control and more than 250 µM.
In the same order, the values of `Cc1ccc(C(=O)Nc2cc(C(=O)Nc3cccc4cc(S(=O)(=O)O)ccc34)cc(C(=O)Nc3cccc4cc(S(=O)(=O)O)ccc34)c2)cc1[N+](=O)[O-]` [Compound 16, 5-({3-[(3-nitro-4-methylphenyl)carbonylamino]-5-[N-(6-sulfonaphthyl)carbamoyl]phenyl}carbonylamino)naphthalene-2-sulfonic acid] are 99.9 % Control and 20 µM.
For the compound `Cc1ccc(C(=O)Nc2cc(C(=O)Nc3cccc4cc(S(=O)(=O)O)ccc34)cc(C(=O)Nc3cccc4cc(S(=O)(=O)O)ccc34)c2)cc1` [Compound 8, 5-({3-[(4-methylphenyl)carbonylamino]-5-[N-(6-sulfonaphthyl)carbamoyl]phenyl}carbonylamino)naphthalene-2-sulfonic acid], the “Activity (% Control)” value in assay [1] is recorded as 130.5 % Control. Further, in the assay with 3T3 L1 fibroblasts, a half-maximal effect (EC50) was put at 3 µM.
`O=C(Nc1cc(C(=O)Nc2cccc3cc(S(=O)(=O)O)ccc23)cc(C(=O)Nc2cccc3cc(S(=O)(=O)O)ccc23)c1)c1cccc(F)c1` [Compound 11, 5-({3-[(3-fluorophenyl)carbonylamino]-5-[N-(6-sulfonaphthyl)carbamoyl]phenyl}carbonylamino)naphthalene-2-sulfonic acid]: the “Activity (% Control)” value in assay [1] was determined as 94 % Control. Also, the EC50 in the assay with 3T3 L1 fibroblasts turned out to be 20 µM.
As for `CC(=O)Nc1cc(C(=O)Nc2cccc3cc(S(=O)(=O)O)ccc23)cc(C(=O)Nc2cccc3cc(S(=O)(=O)O)ccc23)c1` [Compound 23, 5-({3-(acetylamino)-5-[N-(6-sulfonaphthyl)carbamoyl]phenyl}carbonylamino)naphthalene-2-sulfonic acid], the “Activity (% Control)” value in assay [1] is 86.8 % Control. The same compound gave an EC50 with 3T3 L1 fibroblasts of more than 250 µM.
Take `O=C(Nc1cccc2cc(S(=O)(=O)O)ccc12)c1cc(NC(=O)c2cc(Cl)c(Cl)cc2C(=O)O)cc(C(=O)Nc2cccc3cc(S(=O)(=O)O)ccc23)c1` [Compound 18, 2-(N-{3,5-bis[N-(6-sulfonaphthyl)carbamoyl]phenyl}carbamoyl)-4,5-dichlorobenzoic acid]: the “Activity (% Control)” value in assay [1] came out at 95.3 % Control. For the same compound, the EC50 with 3T3 L1 fibroblasts was more than 250 µM.
Taken in the same sequence, the figures for `Cc1ccc(OCC(=O)Nc2cc(C(=O)Nc3cccc4cc(S(=O)(=O)O)ccc34)cc(C(=O)Nc3cccc4cc(S(=O)(=O)O)ccc34)c2)cc1` [Compound 40, 5-({3-[2-(4-methylphenoxy)acetylamino]-5-[N-(6-sulfonaphthyl)carbamoyl]phenyl}carbonylamino)naphthalene-2-sulfonic acid] were 130.7 % Control and more than 250 µM.
In the same order, the values of `O=C(Nc1cc(C(=O)Nc2cccc3cc(S(=O)(=O)O)ccc23)cc(C(=O)Nc2cccc3cc(S(=O)(=O)O)ccc23)c1)c1cccc(Cl)c1` [Compound 10, 5-({3-[(3-chlorophenyl)carbonylamino]-5-[N-(6-sulfonaphthyl)carbamoyl]phenyl}carbonylamino)naphthalene-2-sulfonic acid] are 123.1 % Control and 20 µM.
In the same order, the values of `Cc1cccc(C(=O)Nc2cc(C(=O)Nc3cccc4cc(S(=O)(=O)O)ccc34)cc(C(=O)Nc3cccc4cc(S(=O)(=O)O)ccc34)c2)c1` [Compound 7, 5-({3-[(3-methylphenyl)carbonylamino]-5-[N-(6-sulfonaphthyl)carbamoyl]phenyl}carbonylamino)naphthalene-2-sulfonic acid] are 93.3 % Control and more than 250 µM.
Regarding `O=C(Nc1cc(C(=O)Nc2cccc3cc(S(=O)(=O)O)ccc23)cc(C(=O)Nc2cccc3cc(S(=O)(=O)O)ccc23)c1)c1ccccc1` [Compound 22, 5-({3-(phenylcarbonylamino)-5-[N-(6-sulfonaphthyl)carbamoyl]phenyl}carbonylamino)naphthalene-2-sulfonic acid], in assay [1], the “Activity (% Control)” value came out at 75.9 % Control. In the assay with 3T3 L1 fibroblasts, this compound gave a 50% effective concentration (EC50) of 200 µM.
In the same order, the values of `O=C(Nc1cccc2cc(S(=O)(=O)O)ccc12)c1cc(NC(=O)c2cccc(O)c2C(=O)O)cc(C(=O)Nc2cccc3cc(S(=O)(=O)O)ccc23)c1` [Compound 21, 2-(N-{3,5-bis[N-(6-sulfonaphthyl)carbamoyl]phenyl}carbamoyl)-6-hydroxybenzoic acid] are 104.3 % Control and more than 250 µM.

The term EC50 denotes the concentration needed to bring the measured effect to its halfway point. Low readings indicate an effect from little substance, high ones a need for much substance.
